Read-outs that look alike come from different tables or passages of the source. Marks after values point to notes of the source that are not given here.
Legend:
Human TrxR1 = molecular target: T1, Human TrxR1 (Homo sapiens, UniProt Q16881); test: Human TrxR1 enzyme inhibition (DTNB reduction); format: biochemical; details: for inhibition at 15 µM: compound 15 µM; for inhibition at 30 µM: compound 30 µM
T1 construct: made in house
T1 sequence (Q16881 1-499 isoform Q16881-5): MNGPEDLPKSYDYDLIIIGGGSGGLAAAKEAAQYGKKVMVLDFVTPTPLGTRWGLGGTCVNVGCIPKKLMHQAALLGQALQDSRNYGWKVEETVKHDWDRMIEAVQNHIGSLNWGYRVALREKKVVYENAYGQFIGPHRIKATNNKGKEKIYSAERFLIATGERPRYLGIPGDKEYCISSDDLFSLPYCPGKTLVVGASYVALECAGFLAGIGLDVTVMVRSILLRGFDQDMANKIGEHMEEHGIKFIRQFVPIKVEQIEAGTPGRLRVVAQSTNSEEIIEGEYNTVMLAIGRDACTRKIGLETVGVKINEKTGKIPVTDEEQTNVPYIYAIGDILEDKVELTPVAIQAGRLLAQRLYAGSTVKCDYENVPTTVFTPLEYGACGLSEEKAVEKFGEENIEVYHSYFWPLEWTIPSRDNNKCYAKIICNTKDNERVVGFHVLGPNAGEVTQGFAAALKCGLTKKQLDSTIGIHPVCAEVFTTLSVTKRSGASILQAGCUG
Experimental: Recombinant TGR, human TrxR1, B. malayi (Bm)TrxR and human GR proteins were expressed and purified as described[20],[69],[79]. The codon optimized sequence for P. falciparum (PfTrxR, https://www.ncbi.nlm.nih.gov/protein/CAA60574.1/) with an N-terminal 6-His tag was synthesized and inserted into pET15b (GenScript) and expressed in BL21 (DE3) cells and purified as described for human GR[20]. TGR and TrxR enzyme inhibition assays were performed in triplicate at 25 °C as described[20] in 0.1 M potassium phosphate (pH 7.4), 10 mM EDTA, 100 µM NADPH and 0.01% Tween-20. […] The reaction was started with addition of an equal volume of DTNB (6 mM) and NADPH (100 µM) and the increase in A412 during the first 3 min was recorded. […] The reaction was preincubated for 15 min. Activity was initiated with the addition of 1 mM GSSG and 100 μM NADPH and initial rates of NADPH oxidation were monitored at 340 nm. The reactions were done in triplicate. The IC50 was calculated in GraphPad Prism.

S. mansoni TGR = molecular target: T2, S. mansoni TGR (Schistosoma mansoni, UniProt Q962Y6); test: S. mansoni TGR enzyme inhibition (DTNB reduction); format: biochemical; details: for IC50: 15 min preincubation (enzyme + 100 µM NADPH + compound); for inhibition at 15 µM: compound 15 µM; for inhibition at 30 µM: compound 30 µM; for inhibition at 1 µM: compound 1 µM; for inhibition at 5 µM: compound 5 µM
T2 construct: made in house
T2 sequence (Q962Y6 1-598): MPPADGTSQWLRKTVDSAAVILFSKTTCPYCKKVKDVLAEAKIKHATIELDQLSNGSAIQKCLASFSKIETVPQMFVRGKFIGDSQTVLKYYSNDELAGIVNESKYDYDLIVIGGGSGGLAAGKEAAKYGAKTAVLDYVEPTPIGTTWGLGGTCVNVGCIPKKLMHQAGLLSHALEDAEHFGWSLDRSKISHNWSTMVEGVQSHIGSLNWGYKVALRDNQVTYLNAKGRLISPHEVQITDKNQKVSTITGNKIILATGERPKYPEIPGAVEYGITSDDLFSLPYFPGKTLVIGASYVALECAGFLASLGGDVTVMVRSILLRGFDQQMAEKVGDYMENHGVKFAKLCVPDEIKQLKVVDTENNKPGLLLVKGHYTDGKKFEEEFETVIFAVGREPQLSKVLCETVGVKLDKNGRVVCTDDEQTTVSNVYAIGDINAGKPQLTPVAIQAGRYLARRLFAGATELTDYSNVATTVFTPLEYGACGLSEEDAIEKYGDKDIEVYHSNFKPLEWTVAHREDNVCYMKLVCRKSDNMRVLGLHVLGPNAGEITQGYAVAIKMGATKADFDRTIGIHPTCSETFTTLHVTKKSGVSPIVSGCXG

Vero cells = test: Cytotoxicity in mammalian cells (Cell Titer Glo); format: cell-based; details: for LD50 ex vivo VERO: African green monkey, 24 h; for EC50: Chlorocebus sabaeus, Vero, estimate from raw data, read-out: EC50 viability of Vero cells
Experimental: Following overnight incubation, formulated DMSO-compound stock solutions were diluted with DMEM at <1% DMSO final concentrations. […] Vero cells treated similarly with different concentrations of PZQ, MZM and AF (Cayman Chemicals) were used as positive controls.

Human GR = molecular target: T3, Human GR (Homo sapiens, UniProt P00390); test: Human GR enzyme inhibition (GSSG reduction, NADPH oxidation); format: biochemical; details: for inhibition at 15 µM / inhibition at 30 µM / inhibition at 66.7 µM / inhibition at 5 µM: hGR; for inhibition at 15 µM: compound 15 µM; for inhibition at 15 µM / inhibition at 30 µM / inhibition at 66.7 µM: read-out: % inhibition; for inhibition at 30 µM: compound 30 µM; for inhibition at 66.7 µM: compound 66.7 µM; for inhibition at 5 µM: compound 5 µM
T3 construct: made in house
T3 sequence (P00390 44-522): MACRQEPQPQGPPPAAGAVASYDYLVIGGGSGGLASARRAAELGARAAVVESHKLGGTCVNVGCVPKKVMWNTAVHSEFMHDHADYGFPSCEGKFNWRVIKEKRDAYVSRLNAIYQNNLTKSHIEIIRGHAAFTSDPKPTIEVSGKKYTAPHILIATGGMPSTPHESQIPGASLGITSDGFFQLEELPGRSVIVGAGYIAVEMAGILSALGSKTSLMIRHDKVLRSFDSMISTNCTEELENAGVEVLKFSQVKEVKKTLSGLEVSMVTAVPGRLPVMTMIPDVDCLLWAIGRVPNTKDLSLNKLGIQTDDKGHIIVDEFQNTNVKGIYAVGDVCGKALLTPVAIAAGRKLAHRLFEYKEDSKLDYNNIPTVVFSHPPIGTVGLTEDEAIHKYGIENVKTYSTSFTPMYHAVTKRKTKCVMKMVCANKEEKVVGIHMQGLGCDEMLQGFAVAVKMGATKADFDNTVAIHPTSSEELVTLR

[1] = 15 min preincubation (enzyme + 100 µM NADPH + compound), read-out: Human TrxR1 IC50
[2] = 6 h preincubation, read-out: Human TrxR1 IC50 (µM) or inhibition (%) at 66.7 µM: IC50
[3] = hsTrxR, 15 minutes pre-incubation
[4] = 6 h preincubation (enzyme + 100 µM NADPH + compound), read-out: S. mansoni TGR inhibition (%) at 66.7 µM
[5] = TGR, 15 minutes pre-incubation, read-out: % inhibition
[6] = TGR, 6 hours pre-incubation, read-out: % inhibition
[7] = hsTrxR, 15 minutes pre-incubation, compound 66.7 µM, read-out: % inhibition
[8] = TGR, 15 minutes pre-incubation, compound 66.7 µM, read-out: % inhibition
[9] = 66.7 µM, 6 h preincubation, read-out: Human TrxR1 IC50 (µM) or inhibition (%) at 66.7 µM: inhibition

Row | SMILES | IC50 (Human TrxR1; [1]) | IC50 (Human TrxR1; [2]) | inhibition at 15 µM (Human TrxR1; [3]) | inhibition at 30 µM (Human TrxR1; [3]) | IC50 (S. mansoni TGR) | inhibition at 66.7 µM (S. mansoni TGR; [4]) | inhibition at 15 µM (S. mansoni TGR; [5]) | inhibition at 30 µM (S. mansoni TGR; [5]) | LD50 ex vivo VERO (Vero cells) | EC50 (Vero cells) | Human GR (inhibition at 66.7 µM) (Human GR) | inhibition at 15 µM (Human GR; 15 minutes pre-incubation) | inhibition at 30 µM (Human GR; 15 minutes pre-incubation) | inhibition at 15 µM (Human GR; 6 hours pre-incubation) | inhibition at 30 µM (Human GR; 6 hours pre-incubation) | inhibition at 66.7 µM (Human TrxR1; [7]) | inhibition at 66.7 µM (S. mansoni TGR; [8]) | inhibition at 66.7 µM (Human GR; 15 minutes pre-incubation) | inhibition at 66.7 µM (Human GR; 6 hours pre-incubation) | further results
1 | Cc1oc(-c2ccc3c(c2)OCO3)nc1CN[C@@H]1C[C@@H]2C[C@H]([C@H]1C)C2(C)C [Compound 1] | > 66.7 µM | 37 ± 3.44 µM | 6.99% | 11.4% | > 66.7 µM | 42.1% | 5.86% | 10% | >75.5^a µM | > 200 µM | n.i. | -1.22% | -0.832% | -0.519% | -1.06% |  |  |  |  | inhibition at 15 µM (S. mansoni TGR; [6]): 7.78%; inhibition at 30 µM (S. mansoni TGR; [6]): 21.1%
2 | CCc1ccccc1-c1nc(CN[C@@H]2C[C@@H]3C[C@H]([C@H]2C)C3(C)C)c(C)o1 [Compound 2] | > 66.7 µM | 50 ± 13.6 µM | 2.2% | 4.72% | > 66.7 µM | 28.7% | 4.35% | 8.85% | 54.7 ± 6.65 µM | > 50 µM | n.i. | -0.995% | -1.9% | -5.17% | -3.97% | 11.5% | 12.5% | -0.827% | -3.29% | inhibition at 15 µM (S. mansoni TGR; [6]): 12.1%; inhibition at 30 µM (S. mansoni TGR; [6]): 14.6%; inhibition at 66.7 µM (S. mansoni TGR; TGR, 6 hours pre-incubation, compound 66.7 µM, read-out: % inhibition): 28.7%
3 | Cc1oc(-c2ccccc2)nc1CN[C@@H]1C[C@@H]2C[C@H]([C@H]1C)C2(C)C [Compound 3] | > 66.7 µM | 42.7 ± 3.95 µM |  |  | > 66.7 µM | 45% |  |  | 36.1 ± 3.0 µM | > 50 µM | n.i. |  |  |  |  |  |  |  |  | 
4 | Cc1oc(C2CCCCC2)nc1CN[C@@H]1C[C@@H]2C[C@H]([C@H]1C)C2(C)C [Compound 4] | > 66.7 µM | 19 ± 5.72 µM | 14.3% | 26.9% | > 66.7 µM | 68.6% |  |  | >50^a µM |  | n.i. |  |  |  |  | 40.2% |  |  |  | 
5 | Cc1oc(-c2ccc3ccccc3c2)nc1CNC1CCCCCC1 [Compound 5] | > 66.7 µM |  |  |  |  | 73% |  |  | >50^a µM |  | n.i. |  |  |  |  |  |  |  |  | inhibition at 66.7 µM (Human TrxR1; [9]): 28.5%
6 | C#CCN(Cc1nc(-c2ccccc2)oc1C)[C@@H]1C[C@@H]2C[C@H]([C@H]1C)C2(C)C [Compound 6] | > 66.7 µM |  |  | 1.95% |  |  |  | 95.8% | >100^a µM |  | n.i. | -0.749% |  | -0.648% |  | 2.61% | 96.4% | -0.295% | -0.21% | inhibition at 66.7 µM (Human TrxR1; [9]): 28.9%; inhibition at 1 µM (S. mansoni TGR; TGR, 15 minutes pre-incubation): 26.3%; inhibition at 5 µM (S. mansoni TGR; TGR, 15 minutes pre-incubation): 74.8%; times more potent against TGR than human TrxR1 (S. mansoni TGR; ratio of IC50s): at least 25 fold
7 | Cc1oc(C2CCCCC2)nc1C(=O)N[C@@H]1C[C@@H]2C[C@H]([C@H]1C)C2(C)C [Compound 7] | 22.3 ± 2.03 µM |  | 38.1% | 63.3% | 14.6 ± 1.22 µM |  | 75.5% | 88.1% | >50^a µM |  | n.i. | -0.669% | -0.696% | -0.918% | -2.19% | 92.7% | 95.1% | -1.12% | -0.656% | 
8 | C[C@@H]1[C@H]2C[C@@H](C[C@H]1NCc1nc3ccccc3n1C1CCCCCC1)C2(C)C [Compound 8] | 4.9 ± 1.72 µM |  |  |  | 10.3 ± 2.01 µM |  | 57.4% | 62.9% | 32.7 ± 2.99 µM | > 50 µM | n.i. | -0.934% | -0.111% | -4.52% | -1.03% |  | 78.8% | -0.91% | 9.42% | inhibition at 2.5 µM (Human TrxR1; hsTrxR, 15 minutes pre-incubation, compound 2.5 µM): 37.2%; inhibition at 5 µM (Human TrxR1; hsTrxR, 15 minutes pre-incubation, compound 5 µM): 49.7%; inhibition at 10 µM (Human TrxR1; hsTrxR, 15 minutes pre-incubation, compound 10 µM): 61.6%; inhibition at 5 µM (Human GR; 15 minutes pre-incubation): -0.362%; inhibition at 5 µM (Human GR; 6 hours pre-incubation): -1.4%
9 | CC1C(NCc2cn(C3OCC(O)C(O)C3O)c3ccccc23)CC2CC1C2(C)C (stereo not drawn) [Compound 9] | 70.5 ± 11.4 µM |  | 5.09% | 8.68% | 57.5 ± 2.46 µM |  | 32.6% | 49.3% | >50^a µM | > 200 µM | n.i. | -0.142% | -2.5% | -0.844% | -1.45% | 14.5% | 68.2% | -1.69% | -3.11% | inhibition at 1 µM (S. mansoni TGR; TGR, 15 minutes pre-incubation): 3.4%; inhibition at 5 µM (S. mansoni TGR; TGR, 15 minutes pre-incubation): 11.8%
